From patent publication US12583870B2, “Azaheteroaryl compound and application thereof” (SHANGHAI BLUERAY BIOPHARMA CO., LTD., priority 2019, dated 2026) come the findings set out here.

Experiment [1] concerns trimethylation level of histone H3K27 in G401 cells. The experiment in a line: ELISA (H3K27 trimethylation) analysis in G401 cells. It counts as cell-based. Conditions: Homo sapiens, G-401, 72 hours, H3K27me3 standardized to H3. The method, boiled down:
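Cells exposed 72 h to 10-point 3-fold dilutions, top 10 μM, 0.5% final DMSO. Acid-extracted histones assayed by ELISA (ECL) for H3K27me3, normalized to total H3 and to DMSO control; IC50 from dose-response fit.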
For orientation: In an ELISA, binding on a coated surface is turned into a signal by an enzyme label.

In another experiment the test system is KARPAS-422 cells. The experiment in a line: Cell proliferation analysis, KARPAS-422, 13 days, CellTiter-Glo. It counts as cell-based. The note with it: Homo sapiens, 312 h. Summed up: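 KARPAS-422 cells were treated with PRC2 inhibitors over 9 three-fold dilutions from 10 μM top (0.5% DMSO, duplicates) in RPMI-1640 with 15% FBS at 37 °C. Every 3–4 days cells were counted and reseeded at 1×10^4/well with fresh compound. Viability was read by CellTiter-Glo luminescence on day 13.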
Background: ATP-based viability assays read luminescence as a measure of living cells.

For experiment [2], the target named is T1, EED protein (His6-tagged full-length) binding to H3K27me3 polypeptide (Homo sapiens, UniProt O75530).
T1 construct: His6-tagged full-length EED protein (441 amino acids)
T1 sequence (O75530 whole entry): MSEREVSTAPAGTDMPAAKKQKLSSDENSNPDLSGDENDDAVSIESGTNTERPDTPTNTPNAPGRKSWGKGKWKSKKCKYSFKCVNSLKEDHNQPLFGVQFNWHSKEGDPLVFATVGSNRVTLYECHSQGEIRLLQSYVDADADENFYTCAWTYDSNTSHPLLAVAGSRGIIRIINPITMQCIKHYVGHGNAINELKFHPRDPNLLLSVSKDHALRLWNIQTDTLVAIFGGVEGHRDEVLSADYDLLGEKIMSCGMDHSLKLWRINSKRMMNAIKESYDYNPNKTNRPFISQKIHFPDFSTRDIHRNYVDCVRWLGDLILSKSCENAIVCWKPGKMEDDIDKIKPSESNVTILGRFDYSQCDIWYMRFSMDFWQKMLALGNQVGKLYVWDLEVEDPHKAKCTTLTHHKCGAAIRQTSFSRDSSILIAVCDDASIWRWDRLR
The experiment can be described thus: AlphaScreen evaluation of blocking the binding of EED to H3K27Me3. The note with it: EED 60 nM, biotinylated H3K27me3 75 nM, 30 minutes incubation. The method, boiled down: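 His6-tagged full-length EED (60 nM working stock) and biotin-H3K27me3 peptide aa 19–33 (75 nM working stock) incubated 30 min RT with 9-point 3-fold compound series in 25 mM HEPES pH 8.0, 50 mM NaCl, 0.015% Tween 20, 0.5% BSA. Ni-chelate acceptor and streptavidin donor beads (5 μg/mL each), 1 h dark; IC50 from dose-response fit. Biotin-(His)6 counterscreen checked signal interference.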
On the technique in general: Alpha assays give light when donor and acceptor beads are brought close together.

The structures appear in SMILES notation.

Take `Fc1cc(-c2cnc(NCc3c(F)ccc4c3CCO4)n3cnnc23)c2nc(C(F)(F)F)cn2c1` [N-((5-fluoro-2,3-dihydrobenzofuran-4-yl)methyl)-8-(6-fluoro-2-(trifluoromethyl)imidazo[1,2-a]pyridin-8-yl)-[11,2,4]triazolo[4,3-c]pyrimidin-5-amine]: the IC50 turned out to be 0.0171 µM in experiment [1], 0.0095 µM in the experiment on KARPAS-422 cells and 0.0023 µM in experiment [2].
In the same order, the values of `Cc1cn2cc(F)cc(-c3cnc(NCc4c(F)ccc5c4CCO5)n4cnnc34)c2n1` [N-((5-fluoro-2,3-dihydrobenzofuran-4-yl)methyl)-8-(6-fluoro-2-methylimidazo[1,2-a]pyridin-8-yl)-[1,2,4]triazolo[4,3-c]pyrimidin-5-amine] are 0.0035 µM, 0.0013 µM and 0.003 µM.
Regarding `Cc1cnc2c(-c3cnc(NCc4c(F)ccc5c4CCO5)n4cnnc34)cc(F)cn12` [N-((5-fluoro-2,3-dihydrobenzofuran-4-yl)methyl)-8-(6-fluoro-3-methylimidazo[1,2-a]pyridin-8-yl)-[1,2,4]triazolo[4,3-c]pyrimidin-5-amine], the IC50 in experiment [1] was determined as 0.0057 µM; with KARPAS-422 cells, 0.004 µM; in experiment [2] it was 0.0074 µM.
In the same order, the values of `Fc1cc(-c2cnc(NCc3c(F)ccc4c3CCO4)n3cnnc23)c2nccn2c1` [N-((5-fluoro-2,3-dihydrobenzofuran-4-yl)methyl)-8-(6-fluoroimidazo[1,2-a]pyridin-8-yl)-[1,2,4]triazolo[4,3-c]pyrimidin-5-amine] are 0.0029 µM, 0.002 µM and 0.0049 µM.
For `Cc1cc(-c2cnc(NCc3c(F)ccc4c3CCO4)n3cnnc23)c2nccn2c1` [N-((5-fluoro-2,3-dihydrobenzofuran-4-yl)methyl)-8-(6-methylimidazo[1,2-a]pyridin-8-yl)-[1,2,4]triazolo[4,3-c]pyrimidin-5-amine], the concentration for half-maximal inhibition (IC50) was found to be 0.014 µM in experiment [1], 0.0116 µM in the experiment with KARPAS-422 cells and 0.0243 µM in experiment [2].
In the case of `Fc1ccc2c(c1CNc1ncc(-c3ccc4nccn4c3)c3nncn13)CCO2` [N-((5-fluoro-2,3-dihydrobenzofuran-4-yl)methyl)-8-(imidazo[1,2-a]pyridin-6-yl)-[1,2,4]triazolo[4,3-c]pyrimidin-5-amine], the IC50 was found to be 0.058 µM in experiment [1], 0.0941 µM in the experiment on KARPAS-422 cells and 0.0424 µM in experiment [2].
In the same order, the values of `Fc1ccc2c(c1CNc1ncc(-c3ccn4ccnc4c3)c3nncn13)CCO2` [N-((5-fluoro-2,3-dihydrobenzofuran-4-yl)methyl)-8-(imidazo[1,2-a]pyridin-7-yl)-[1,2,4]triazolo[4,3-c]pyrimidin-5-amine] are 0.0056 µM, 0.0165 µM and 0.015 µM.
For `Fc1ccc2c(c1CNc1ncc(-c3cccn4ccnc34)c3nncn13)CCO2` [N-((5-fluoro-2,3-dihydrobenzofuran-4-yl)methyl)-8-(imidazo[1,2-a]pyridin-8-yl)-[1,2,4]triazolo[4,3-c]pyrimidin-5-amine] the same measures were 0.0008 µM, 0.0015 µM and 0.0044 µM.
As to `Fc1ccc2c(c1CNc1ncc(-c3ccc4ccnn4c3)c3nncn13)CCO2` [N-((5-fluoro-2,3-dihydrobenzofuran-4-yl)methyl)-8-(pyrazolo[1,5-a]pyridin-6-yl)-[1,2,4]triazolo[4,3-c]pyrimidin-5-amine], the half-inhibitory concentration (IC50) in experiment [1] is 0.0061 µM; in the experiment with KARPAS-422 cells, 0.0154 µM; in experiment [2], 0.0043 µM.
In the same order, the values of `Fc1ccc2c(c1CNc1ncc(-c3cnn4cccnc34)c3nncn13)CCO2` [N-((5-fluoro-2,3-dihydrobenzofuran-4-yl)methyl)-8-(pyrazolo[1,5-a]pyrimidin-3-yl)-[1,2,4]triazolo[4,3-c]pyrimidin-5-amine] are 0.0104 µM, 0.0097 µM and 0.0021 µM.
In the same order, the values of `Fc1ccc2c(c1CNc1ncc(-c3cnc4ccnn4c3)c3nncn13)CCO2` [N-((5-fluoro-2,3-dihydrobenzofuran-4-yl)methyl)-8-(pyrazolo[1,5-a]pyrimidin-6-yl)-[1,2,4]triazolo[4,3-c]pyrimidin-5-amine] are 0.018 µM, 0.0183 µM and 0.0057 µM.
In the same order, the values of `Fc1ccc2c(c1CNc1ncc(-c3cccn4ccnc34)c3nncn13)[C@H]1C[C@H]1O2` [N-(((1aR,6bR)-5-fluoro-1a,6b-dihydro-1H-cyclopropa[b]benzofuran-6-yl)methyl)-8-(imidazo[1,2-a]pyridin-8-yl)-[1,2,4]triazolo[4,3-c]pyrimidin-5-amine] are 0.001 µM, 0.0006 µM and 0.0035 µM.

One may read the IC50 as the point on the concentration scale where inhibition reaches its midpoint. A lower IC50 goes with higher potency.
